These results are taken from patent US20260209305A1, “THERAPEUTIC EXPLOITATION OF STING CHANNEL ACTIVITY” (The Broad Institute Inc., priority 2022, published 2026).

Assay [1] deals with T1, STING (Homo sapiens, UniProt Q86WV6). As to the kind of experiment: STING-induced autophagy: LC3 lipidation, RFP-LC3 imaging in FIP200 KO 293T cells and western blot in BJ1 cells. The settings on record: 1 hour; for LC3 lipidation upon agonist treatment: 20 ug/ml cGAMP, 40 μM MSA2 or 1 μM diABZI. On the set-up: expressed in transfected cells; host or cells: FIP200 KO 293T cells, lentiviral transduction. The class given is cell-based. For orientation: A western blot detects proteins with antibodies after separation by electrophoresis.
Description: Cells were then fixed with 2% Paraformaldehyde (Electron Microscopy Sciences) in PHEM buffer (Electron Microscopy Sciences) for 30 minutes at 37° C., washed three times with PBS and quenched with freshly prepared 0.1M Glycine for 10 minutes. Coverslips were then permeabilized and blocked with 1× perm/stain buffer (10% goat serum (Thermo Fisher) in PBS, 0.5% BSA (Seracare), 0.05% Saponin from quillaja barka (Sigma)) for 30 minutes. […] Coverslips were then washed 5 times, mounted with Fuoromont-G, with DAPI (Thermo Fisher) and dried at 37° C. for one hour. Images were acquired on Olympus. Images were acquired on an Olympus IX83 using an Olympus UApo 40× objective controlled by Fluoview software.
Western Blotting: BJ1 cells were seeded at 0.15 million cells/well density in a 24 well plate the night before stimulation. […] Cells were then harvested and lysed in 100 ul of 1×SDS sample buffer (Boston Bio, #BP111NR).
Cells were segmented by thresholding the DAPI signal to identify nuclei and expanding the resulting regions using the seeded watershed method. Cells were segmented based on background in the Lysosensor, LC3B-RFP, and NLRP3 mNeonGreen channels. For the live-cell imaging and NLRP3 stimulation experiments, background was subtracted using the rolling ball algorithm. Puncta or Golgi structures enhanced using a Laplacian of Gaussian filter with sigma=12 (live-cell), sigma=8 (NLRP3), or sigma=7 (LC3B).

Assay [2] concerns STING. Briefly: RFP-LC3 induction and pSTING by FACS in HEK293T cells expressing STING WT or H50R. Conditions: mutant vs WT STING, FIP200 KO 293T cells, agonist stimulation. It counts as cell-based, human. The method, then:
FACS based genome-wide CRISPR screen and mutagenesis screen: FIP200 KO 293T cells were generated by transfecting 293T cells with pXPR_023 (Addgene #52961), encoding Cas9 and an sgRNA against FIP200 and selecting cells with 2 μg/ml puromycin (Thermo Fisher Scientific #A1113803) for two days. FIP200 KO 293T cells were then transduced with pTRIP-PGK-Hygro-P2A-RFP-LC3, treated with 33 μg/ml hygromycin (Invivogen, #ant-hg-1) for 3 days, and then sorted to get a homogenous RFP+ population.
Mutagenesis screen: RFP-LC3 FIP200 KO 293T cells were infected with saturated mutagenesis library lentivirus at MOI=0.2, and selected with 20 μg/ml blasticidin for 2 days. 150M transduced cells were treated with diABZI for 1.5 hr, and then permeabilized with 1× perm buffer (PBS with 0.05% saponin and 0.1% glycine) for 4 min. Permed cells are then washed with 1×PBS, and fix, perm, and stained using BD Cytofix/Cytoperm kit and anti-pSTING Alexa647 (CST, #43499) at 1:100 dilution.
A sorting strategy similar to the genome-wide CRISPR screen was followed, sorting populations of LC3− and LC3+ HEK293T cells within the pSTING+ cell population (FIG. 3E), thus ensuring that the sorted cell mutants enabled expression of functional STING able to translocate to Golgi/endosomes where phosphorylation of STING occurs (Dobbs et al. 2015). […]
Target sequence in this assay (Q86WV6 153-340 limits assumed): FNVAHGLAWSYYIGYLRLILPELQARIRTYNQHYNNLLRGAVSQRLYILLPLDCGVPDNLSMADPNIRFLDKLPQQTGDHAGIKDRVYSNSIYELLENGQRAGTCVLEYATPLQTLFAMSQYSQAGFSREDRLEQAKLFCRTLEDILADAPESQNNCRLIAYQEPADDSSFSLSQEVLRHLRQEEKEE
On the technique in general: A flow cytometer gives signals particle by particle.

Another assay has as its system NLRP3 inflammasome. Briefly: Inflammasome activation and IL-1ß release in primary human monocytes. It counts as cell-based.
Assay [3] concerns STING. Briefly: p-STING and LC3B lipidation immunoblot in 293T cells expressing WT STING, STING AQQA or TMEM192-STING-LBD. It counts as cell-based, human. The settings on record: 293T cells expressing the STING construct. The method, then: Genes that are essential for mediating STING-induced autophagy were systematically identify, with a special interest in identifying potential transporters responsible for ion leakage. […] A genome-wide CRISPR fluorescence-activated cell sorting (FACS) screen was carried out using HEK293T cells expressing RFP-LC3 and STING-HA with FIP200 knocked out in order to reduce background signal from basal autophagy. Following transduction with the sgRNA library, cells were stimulated with diABZI to induce STING activation and STING-HA+ cells were sorted into LC3− and LC3+ bins (FIG. 1A) to specifically identify genes that altered CASM activation without affecting STING activation. […] The STING itself may have mediated Golgi/endosomes proton leakage critical for subsequent assembly of V-ATPase and recruitment of ATG16L1 to initiate CASM (Xu et al. 2019). In order to assess this, whether the STING ligand-binding domain (LBD), which has been proposed to recruit LC3 through its LR motifs (Gui et al. 2019; Liu et al. 2019), could induce autophagy upon translocation to Golgi/endosomes was first tested. Autophagy induction was tested in 293T cells by WT STING, a STING oligomerization-deficient mutant (A277Q/Q273A STING, termed AQQA), and an endolysosome-localized STING fusion protein (the endolysosomal protein TMEM192 fused with the STING LBD) upon agonist stimulation. […]

The target of assay [4] is T1, STING. As to the kind of experiment: Organelle pH measurement (Lysosensor) after STING activation in BJ1 cells. It counts as cell-based. The settings on record: human fibroblasts (BJ1), 1 μM diABZI, 1 hr. Here is the method:
Organelle pH Measurements and Image Acquisition: hTERT-immortalized BJ1 cells (ATCC CRL-2522) were plated in 24-well glass-bottom plates (Greiner Bio-One). After 24 hours, cells were stained for 30 minutes at 37° C. with 5 μM Lysosensor (Thermo Fisher Scientific cat #L7535), […] Hoechst (Thermo Fisher Scientific, cat. #62249), and 1 μM Bodipy TR Ceramide (Thermo Fisher Scientific cat #B34400) for Golgi labeling or 100 nM Lysotracker Deep Red (Thermo Fisher Scientific cat #L12492) for endolysosome labeling in Phenol-free DMEM medium with 10% FBS and 1% Pen-Strep. Cells were then washed five times with Phenol-free DMEM medium and stimulated with 1 μM DIABZI for 1 hr with or without the addition of 10 μM C53. […] An LED light engine (Lumencor CELESTA Light Engine) was used for fluorescence illumination and all hardware was controlled using NIS elements software. […]
Given the necessity of both the STING transmembrane domain and its translocation for autophagy induction, it was investigated whether the entire STING protein could cause ion leakage by either inducing membrane damage resulting in a secondary ion imbalance or by directly acting as an ion channel. […] The possibility that STING directly behaves as a channel for proton release into the cytosol upon translocation to the Golgi was assessed, the Golgi being an acidic compartment (Linders et al. 2022). […]

The next assay concerns NLRP3. As to the kind of experiment: NLRP3-mNeongreen reporter: NLRP3 puncta in 293T cells expressing STING-HA. It counts as cell-based, human. The settings on record: 1 μM diABZI, 1 hour.

T1 sequence (Q86WV6 whole entry): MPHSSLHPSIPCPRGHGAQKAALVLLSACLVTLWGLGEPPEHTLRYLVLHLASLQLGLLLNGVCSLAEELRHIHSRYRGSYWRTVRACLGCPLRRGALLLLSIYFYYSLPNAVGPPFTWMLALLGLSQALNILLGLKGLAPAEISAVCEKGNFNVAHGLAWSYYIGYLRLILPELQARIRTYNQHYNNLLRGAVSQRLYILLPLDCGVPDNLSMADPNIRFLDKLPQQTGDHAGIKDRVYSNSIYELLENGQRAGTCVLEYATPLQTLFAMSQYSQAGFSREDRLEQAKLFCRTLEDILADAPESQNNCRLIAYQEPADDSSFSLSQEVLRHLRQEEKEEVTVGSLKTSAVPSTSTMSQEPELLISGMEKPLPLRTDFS

With `COc1cc2cc(C(=O)CCC(=O)O)sc2cc1OC` [MSA2], the “LC3 lipidation upon agonist treatment” value at STING [1] is “LC3 lipidation was induced”.
Regarding “STING H50R: human STING polypeptide with H50R substitution in TM2, inside the pore area”, the “LC3 induction within pSTING+ cells (STING-induced autophagy)” value in the assay on STING [2] was “reduced”; in the assay with STING [2] (listed as H50R) it was “strongly inhibit”.
As to cyclic GMP-AMP [cGAMP], the “IL-1ß release upon STING agonist stimulation” value in the assay on NLRP3 inflammasome is “induced”.
In the case of “AQQA: STING oligomerization-deficient mutant (A277Q/Q273A STING)”, the “autophagy induction (LC3B lipidation) upon agonist stimulation” value with STING [3] is given as “impaired LC3B lipidation”.
For `CO[C@@H]1C[C@@H](C[C@H]2CC[C@H](C)[C@H]([C@@H](C)C(=O)O)O2)O[C@]2(O[C@](C)([C@H]3CC[C@@](C)([C@@H]4O[C@@H]([C@H]5O[C@@](O)(CO)[C@H](C)C[C@@H]5C)C[C@@H]4C)O3)C[C@H]2C)[C@@H]1C` [Nigericin], the “LC3 lipidation by independent ionophore stimulus” value on STING [1] (BJ1 cells, 2 μM Nigericin) was “induction of LC3 lipidation”.
On to `CCn1nc(C)cc1C(=O)Nc1nc2cc(C(N)=O)cc(OC)c2n1C/C=C/Cn1c(NC(=O)c2cc(C)nn2CC)nc2cc(C(N)=O)cc(OCCCN3CCOCC3)c21` [diABZI], for which the “IL-1ß release upon STING agonist stimulation” value with NLRP3 inflammasome is “induced”. Further, at STING [4], the “fluorescence within the endolysosomal compartment” value was “only modestly altered” and the “pH within the Golgi apparatus (decreased fluorescence of Lysosensor Green dye)” value is reported as “significant increase in pH”. In addition, on STING [1], the “LC3 lipidation upon agonist treatment” value is “LC3 lipidation was induced”. In addition, the “NLRP3 translocation upon stimulation” value in the assay with NLRP3 was “NLRP3 translocated from the cytoplasm to perinuclear vesicles”.
